Assay results published in patent publication US20070092551A1, “Therapeutic agent” (TAKARA BIO INC., priority 2003, published 2007).
Like-named read-outs stand apart in the source and are kept apart here.

System: 3T3-L1 cells
Assay: Induction of adipocyte differentiation (amount of triglyceride biosynthesis)
Assay type: cell-based
Details: Mus musculus
Procedure: Induction of adipocyte differentiation was carried out by partially modifying the above-mentioned method of Rubin C. S. et al. In addition, as a test compound, a compound prepared in Examples mentioned above or a commercially available compound was used. 3T3-L1 cells (ATCC CCL-92.1) were suspended in a 10% fetal bovine serum (manufactured by Bio Whittaker)-containing Dulbecco's modified Eagle's medium (manufactured by Sigma, D6046) containing 200 μM ascorbic acid so as to have a density of 4×10^3 cells/mL, and the suspension was put in each well of a 12-well microtiter plate in an amount of 2 ml per well. The cells were cultured at 37° C. for 7 days in the presence of 5% carbon dioxide gas. On the seventh day, the medium was exchanged with a 10% fetal bovine serum (manufactured by Bio Whittaker)-containing Dulbecco's modified Eagle's medium containing 200 μM ascorbic acid and 0.25 μM dexamethasone, and a test compound dissolved in dimethyl sulfoxide in a concentration shown in each of Tables 16 to 19 was added to each well. Here, there were set a group with addition of 4 μL of an aqueous solution containing 5 mg/mL insulin (manufactured by TAKARA BIO INC.) as a positive control, and a group with addition of dimethyl sulfoxide as a negative control. After 45 hours, the medium was exchanged with a 10% fetal bovine serum-containing Dulbecco's modified Eagle's medium containing 200 μM ascorbic acid. A test compound, 2 μL of an aqueous solution containing 5 mg/mL insulin as a positive control, or dimethyl sulfoxide as a negative control was put to each well in the same concentration. The cells were cultured for additional 7 days. In addition, the medium was exchanged on after 2 days and after 5 days, and at that time, a test compound, 2 μL of an aqueous solution containing 5 mg/mL insulin as a positive control, or dimethyl sulfoxide as a negative control was put to each well in the same concentration.
The amount of triglyceride in the adipocytes was determined as an index of induction of differentiation into mature adipocytes, and also, as the evaluation of insulin-mimetic action.
After the termination of the culture, the medium was removed, and the cells were washed twice with a phosphate buffered saline. One milliliter of a solvent of hexane:isopropanol=3:2 was added to the cells. The mixture was allowed to stand at room temperature for 30 minutes, and thereafter the supernatant was collected. The procedures were repeated again, and 2 mL of the supernatant was concentrated to dryness. The precipitate was dissolved in 100 μL of isopropanol, and the amount of triglyceride contained in 10 μL of the solution was determined using a triglyceride E-test (manufactured by Wako Pure Chemical Industries, Ltd., code 432-40201). In addition, all the determinations were carried out twice. The action for induction of differentiation was calculated by the following calculation formula, and shown by four ranks of +++, ++, + and +/−. • S: Amount of triglyceride in the presence of a test compound; • N: Amount of triglyceride in the negative control; and • P: Amount of triglyceride in the positive control; X=(S−N)/(P−N) (Judgment of Action for Induction of Differentiation)

[1] = 3T3-L1, 3 μM, X=(S−N)/(P−N) of amount of triglyceride, P=insulin positive control, read-out: Action for Induction of Differentiation
[2] = 3T3-L1, 10 μM, X=(S−N)/(P−N) of amount of triglyceride, P=insulin positive control, read-out: Action for Induction of Differentiation
[3] = 3T3-L1, read-out: Action for Induction of Differentiation
[4] = 3T3-L1, 30 μM, X=(S−N)/(P−N) of amount of triglyceride, P=insulin positive control, read-out: Action for Induction of Differentiation

SMILES | activation at 3 µM [1] [%] | activation at 10 µM [2] [%] | activation at 30 µM [4] [%] | other results
CC(=O)c1ccc(O)c(Cc2ccccc2)c1O [Compound (C054), 2′,4′-dihydroxy-3′-benzylacetophenone] | 15 to 30 | 30 to 60 |  | 
COc1c2occc2cc2ccc(=O)oc12 [Xanthotoxin] |  |  |  | activation at 13 µM [3]: 30 to 60%; activation at 40 µM [3]: 60 to 100%
CC(=O)c1ccc(OCc2ccccc2)c(C/C=C(\C)CCC=C(C)C)c1O [Compound (C070), 2′-hydroxy-3′-geranyl-4′-benzyloxyacetophenone] |  | 30 to 60 | 60 to 100 | 
CC(C)=CCC/C(C)=C/Cc1c(O)ccc2c1OC(c1ccc(O)cc1)CC2=O (stereo not drawn) [Prostratol F] | 60 to 100 | 60 to 100 |  | 
COc1ccc(C(=O)/C=C/c2ccc(O)cc2)c2c1CC(C(C)(C)O)O2 (stereo not drawn) [TB4, 1-[2,3-dihydro-2-(1-hydroxy-1-methylethyl)-4-methoxy-benzofuran-7-yl]-3-(4-hydroxyphenyl)-2-propen-1-one] | 30 to 60 | 30 to 60 |  | 
CC(C)=CCC/C(C)=C/COc1ccc([C@@H]2CC(=O)c3c(O)cc(O)cc3O2)cc1 [4′-O-Geranylnaringenin] | 30 to 60 | 60 to 100 | > 100 | 
COc1ccc(C(=O)/C=C/c2cccs2)c(O)c1CC=C(C)C [Compound (C-THP), 1-(2-hydroxy-4-methoxy-3-prenylphenyl)-3-(2-thienyl)-2-propen-1-one] | 60 to 100 | > 100 |  | activation at 1 µM (3T3-L1, 1 μM, X=(S−N)/(P−N) of amount of triglyceride, P=insulin positive control, read-out: Action for Induction of Differentiation): 15 to 30%
CC(=O)c1ccc(O)c(C/C=C(\C)CC/C=C(\C)CCC=C(C)C)c1O [Compound (C051), 2′,4′-dihydroxy-3′-farnesylacetophenone] |  |  | 60 to 100 | 
C/C(=C\Cc1c(O)ccc(C(=O)/C=C/c2ccc(O)cc2)c1O)CCC(O)C(C)(C)O (stereo not drawn) [TB5, 1-[2,4-dihydroxy-3-(6,7-dihydroxy-3,7-dimethyl-2-octenyl)phenyl]-3-(4-hydroxyphenyl)-2-propen-1-one] | > 100 | > 100 |  | 
COc1ccc(C(=O)/C=C/C=C(C)C)c(O)c1CC=C(C)C [Compound (C069), 1-(2-hydroxy-3-prenyl-4-methoxyphenyl)-5-methyl-2,4-hexadien-1-one] | 30 to 60 | > 100 | > 100 | 
COc1ccc2c(c1CC=C(C)C)OC(c1ccc(O)cc1)CC2=O (stereo not drawn) [Compound (C034), 7-methoxy-8-prenyl-4′-hydroxyflavanone] | > 100 | > 100 |  | 
COc1ccc(C=O)c(O)c1CC=C(C)C [Compound (C063), 2-hydroxy-3-prenyl-4-methoxybenzaldehyde] | 30 to 60 | 60 to 100 | > 100 | 
CC(=O)c1ccc(O)c(C/C=C(\C)CCC=C(C)C)c1O [Compound (C036), 2′,4′-dihydroxy-3′-geranylacetophenone] | 15 to 30 | 60 to 100 |  | 
CC(=O)c1ccccc1OCc1ccccc1 [Compound (C065), 2′-benzyloxyacetophenone] |  |  |  | activation at 3 µM [3]: 30 to 60%; activation at 10 µM [3]: 60 to 100%; activation at 30 µM [3]: > 100%
CC(C)=CCCC1(C)Oc2c(C(=O)/C=C/c3ccc(O)cc3)ccc(O)c2CC1O (stereo not drawn) [TB2, 1-(3,4-dihydro-3,5-dihydroxy-2-(3-isohexenyl)-2-methyl-2H-benzopyran-8-yl)-3-(4-hydroxyphenyl)-2-propen-1-one] | > 100 | > 100 |  | 
COc1ccc(C(=O)/C=C/c2ccc(O)cc2)c(O)c1C/C=C(\C)C/C=C/C(C)(C)O [Compound (C081), 1-[2-hydroxy-3-(7-hydroxy-3,7-dimethyl-2,5-octadienyl)-4-methoxyphenyl]-3-(4-hydroxyphenyl)-2-propen-1-one] | 60 to 100 | > 100 | > 100 | 
COc1ccc2c(c1C/C=C(\C)CCC=C(C)C)OC(c1ccc(O)cc1)CC2=O (stereo not drawn) [Compound (C082), 8-geranyl-4′-hydroxy-7-methoxyflavanone] |  | 60 to 100 |  | 
COc1ccc(C(=O)/C=C/c2ccc(O)cc2)c(O)c1C [Compound (C023), 4,2′-dihydroxy-3′-methyl-4′-methoxychalcone] |  |  |  | activation at 4 µM (3T3-L1, 4 μM, X=(S−N)/(P−N) of amount of triglyceride, P=insulin positive control, read-out: Action for Induction of Differentiation): 60 to 100%; activation at 13 µM (3T3-L1, 13 μM, X=(S−N)/(P−N) of amount of triglyceride, P=insulin positive control, read-out: Action for Induction of Differentiation): 60 to 100%
CC12CCC(O)C(C)(C)C1Cc1c(O)ccc(C(=O)/C=C/c3ccc(O)cc3)c1O2 (stereo not drawn) [TB1, 1-(5,6,7,8,8a,10a-hexahydro-1,7-dihydroxy-8,8,10a-trimethyl-9H-xanthen-4-yl)-3-(4-hydroxyphenyl)-2-propen-1-one] | > 100 | 60 to 100 |  | 
C=C(C)C(O)CC/C(C)=C/Cc1c(OC)ccc(C(=O)/C=C/c2ccc(O)cc2)c1O (stereo not drawn) [Xanthoangelol G] | 30 to 60 | > 100 | > 100 | 
